The record followed here is patent publication US7994209B2, “3-phenoxymethylpyrrolidine compounds” (Theravance, Inc., priority 2009, dated 2011).

Marks after values point to notes of the source that are not given here.

In experiment [1] the target is T1, hSERT (Homo sapiens, UniProt P31645). The experiment can be described thus: fluorescence-based serotonin reuptake inhibition assay (Tsuruda et al. 2010; data indicated by an asterisk). Further details: expressed in transfected cells; host or cells: HEK-293. The experiment is classed as cell-based. The conditions noted are these: fluorescence-based assay (values with asterisk); for IC50: read-out: SERT pIC50 (converted).

Experiment [2] deals with T2, hNET (Homo sapiens, UniProt P23975). The experiment can be described thus: fluorescence-based norepinephrine reuptake inhibition assay (Tsuruda et al. 2010; data indicated by an asterisk). The note with it: norepinephrine reuptake inhibition, fluorescence-based assay (values with asterisk); for IC50: read-out: NET pIC50 (converted). It counts as cell-based. Further details: expressed in transfected cells; host or cells: HEK-293.

Experiment [3] addresses T2, hNET. Nature of the experiment: hNET membrane radioligand binding assay (3H-nisoxetine), Assay 1.
Experiment [4] concerns the target T1, hSERT. The experiment can be described thus: hSERT membrane radioligand binding assay (3H-citalopram), Assay 1. The conditions noted are these: hSERT HEK-293 membranes, 1.0 nM 3H-citalopram, values given as lower bounds; for Ki: SERT pKi.

T2 sequence (P23975 whole entry): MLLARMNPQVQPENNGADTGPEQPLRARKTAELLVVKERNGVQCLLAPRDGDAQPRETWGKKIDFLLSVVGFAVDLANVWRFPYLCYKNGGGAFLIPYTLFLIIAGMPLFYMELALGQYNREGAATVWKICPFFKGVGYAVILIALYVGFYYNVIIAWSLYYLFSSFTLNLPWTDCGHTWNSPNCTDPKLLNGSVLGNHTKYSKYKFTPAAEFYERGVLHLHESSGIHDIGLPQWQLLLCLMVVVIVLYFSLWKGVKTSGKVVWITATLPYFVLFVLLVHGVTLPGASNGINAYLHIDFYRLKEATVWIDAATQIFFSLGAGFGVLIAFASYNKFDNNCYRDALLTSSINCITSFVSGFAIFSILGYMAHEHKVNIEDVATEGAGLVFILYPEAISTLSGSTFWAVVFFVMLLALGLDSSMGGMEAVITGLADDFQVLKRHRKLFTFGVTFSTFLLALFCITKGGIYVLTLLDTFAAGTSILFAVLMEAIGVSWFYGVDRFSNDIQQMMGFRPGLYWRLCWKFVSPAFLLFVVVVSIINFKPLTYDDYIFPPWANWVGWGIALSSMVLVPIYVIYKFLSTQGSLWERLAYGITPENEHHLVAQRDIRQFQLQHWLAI
T1 sequence (P31645 whole entry): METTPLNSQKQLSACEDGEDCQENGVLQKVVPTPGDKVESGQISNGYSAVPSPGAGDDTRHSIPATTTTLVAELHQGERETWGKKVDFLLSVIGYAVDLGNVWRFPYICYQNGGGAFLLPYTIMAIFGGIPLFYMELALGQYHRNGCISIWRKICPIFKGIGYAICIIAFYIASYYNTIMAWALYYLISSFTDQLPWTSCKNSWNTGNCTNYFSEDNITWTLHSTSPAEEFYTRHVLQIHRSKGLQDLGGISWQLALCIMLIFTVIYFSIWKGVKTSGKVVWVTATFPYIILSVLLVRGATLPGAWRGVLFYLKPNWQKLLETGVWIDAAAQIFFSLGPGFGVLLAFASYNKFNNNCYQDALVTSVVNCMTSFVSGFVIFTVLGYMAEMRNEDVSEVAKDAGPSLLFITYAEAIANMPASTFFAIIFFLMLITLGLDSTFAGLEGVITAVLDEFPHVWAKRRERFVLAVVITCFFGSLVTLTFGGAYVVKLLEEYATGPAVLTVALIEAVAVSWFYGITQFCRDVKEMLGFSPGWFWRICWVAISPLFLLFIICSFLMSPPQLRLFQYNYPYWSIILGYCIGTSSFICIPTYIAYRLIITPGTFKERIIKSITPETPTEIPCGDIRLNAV

Turning to `Clc1cccc(O[C@@H](C2CC2)[C@H]2CCNC2)c1` [Example 16-84, (S)-3-[(S)-(3-Chlorophenoxy)cyclopropylmethyl]pyrrolidine], the figures for the IC50 in experiment [1] and in experiment [2] were no more than 0.1 µM and no more than 0.01 µM, respectively. Moreover, the Ki in experiment [3] and in experiment [4] was no more than 0.01 µM each time.

Regarding `CC(C)C[C@H](Oc1cc(Cl)cc(Cl)c1)[C@@H]1CCNC1` [Example 10-80, (R)-3-[(S)-1-(3,5-Dichlorophenoxy)-3-methylbutyl]pyrrolidine], the IC50 in experiment [1] and in experiment [2] was no more than 0.01 µM in each case. In addition, the inhibition constant (Ki) in experiment [3] and in experiment [4] was no more than 0.01 µM in each case.

Regarding `Fc1c(Cl)ccc(O[C@@H](C2CC2)[C@H]2CCNC2)c1Cl` [Example 16-52, (S)-3-[(S)cyclopropyl-(2,4-dichloro-3-fluorophenoxy)methyl]pyrrolidine], the IC50 in experiment [1] and in experiment [2] was no more than 0.01 µM each time. The Ki in experiment [3] and in experiment [4] was no more than 0.01 µM throughout.

With `CC(C)C[C@H](Oc1cccc(Cl)c1Cl)[C@@H]1CCNC1` [Example 10-24, (R)-3-[(S)-1-(2,3-Dichlorophenoxy)-3-methylbutyl]pyrrolidine], the IC50 in experiment [1] and in experiment [2] was no more than 0.01 µM each time. Further, the inhibitory constant (Ki) in experiment [3] and in experiment [4] was no more than 0.01 µM in each case.

As for `Clc1ccccc1O[C@@H](C1CC1)[C@H]1CCNC1` [Example 16-1, (S)-3-[(S)-(2-Chlorophenoxy)cyclopropylmethyl]pyrrolidine], the IC50 in experiment [1] was no more than 0.1 µM; in experiment [2] it was no more than 0.01 µM. For the same compound, the Ki in experiment [3] and in experiment [4] was no more than 0.01 µM throughout.

On to `Cc1cccc(O[C@@H](C2CC2)[C@H]2CCNC2)c1C` [Example 16-12, (S)-3-[(S)cyclopropyl-(2,3-dimethylphenoxy)-methyl]pyrrolidine], for which the IC50 in experiment [1] and in experiment [2] was no more than 0.01 µM throughout. Moreover, the Ki in experiment [3] and in experiment [4] was no more than 0.01 µM each time.

For the compound `Clc1ccc(O[C@H](C2CC2)[C@H]2CCNC2)cc1Cl` [Example 16-88, (S)-3-[(R)cyclopropyl-(3,4-dichlorophenoxy)methyl]pyrrolidine], the IC50 in experiment [1] and in experiment [2] was no more than 0.01 µM in each case. The Ki in experiment [3] and in experiment [4] was no more than 0.01 µM throughout.

Regarding `COc1c(F)ccc(O[C@@H](C2CC2)[C@H]2CCNC2)c1F` [Example 16-54, (S)-3-[(S)cyclopropyl-(2,4-difluoro-3-methoxyphenoxy)methyl]pyrrolidine], the IC50 in experiment [1] and in experiment [2] was no more than 0.01 µM throughout. Besides, the inhibition constant Ki in experiment [3] and in experiment [4] was no more than 0.01 µM in each case.

Take `COc1ccc(F)c(O[C@@H](C2CC2)[C@H]2CCNC2)c1Cl` [Example 16-64, (S)-3-[(S)-(2-Chloro-6-fluoro-3-methoxyphenoxy)cyclopropylmethyl]pyrrolidine]: the IC50 in experiment [1] and in experiment [2] was no more than 0.01 µM each time. The Ki in experiment [3] and in experiment [4] was no more than 0.01 µM each time.

Turning to `CC(C)[C@H](Oc1c(Cl)cccc1Cl)[C@H]1CCNC1` [Example 6-28, (S)-3-[(S)-1-(2,6-Dichlorophenoxy)-2-methylpropyl]pyrrolidine], the IC50 in experiment [1] is no more than 0.1 µM; in experiment [2], no more than 0.01 µM. The Ki in experiment [3] and in experiment [4] was no more than 0.01 µM in each case.

Turning to `Fc1ccc(O[C@@H](C2CC2)[C@H]2CCNC2)c(F)c1F` [Example 16-46, (S)-3-[(S)cyclopropyl-(2,3,4-trifluorophenoxy)methyl]pyrrolidine], the IC50 in experiment [1] and in experiment [2] was no more than 0.01 µM each time. The Ki in experiment [3] and in experiment [4] was no more than 0.01 µM each time.

`Cc1ccc(F)c(O[C@H](C2CC2)[C@H]2CCNC2)c1Cl` [Example 16-63, (S)-3-[(R)-(2-Chloro-6-fluoro-3-methylphenoxy)cyclopropylmethyl]pyrrolidine]: the results for the IC50 in experiment [1] and in experiment [2] were no more than 0.1 µM and no more than 0.01 µM, respectively. The Ki in experiment [3] and in experiment [4] was no more than 0.01 µM each time.

As to `Fc1ccc(O[C@H](C2CC2)[C@H]2CCNC2)c(F)c1F` [Example 16-47, (S)-3-[(R)cyclopropyl-(2,3,4-trifluorophenoxy)methyl]pyrrolidine], the IC50 in experiment [1] and in experiment [2] was no more than 0.01 µM each time. Also, the inhibitory constant (Ki) (commonly the equilibrium dissociation constant of an inhibitor or competing ligand from its target) in experiment [3] is no more than 0.1 µM; in experiment [4], no more than 0.01 µM.

For `Cc1ccc(F)c(O[C@@H](C2CC2)[C@H]2CCNC2)c1Cl` [Example 16-62, (S)-3-[(S)-(2-Chloro-6-fluoro-3-methylphenoxy)cyclopropylmethyl]pyrrolidine], the IC50 in experiment [1] was no more than 0.1 µM; in experiment [2], no more than 0.01 µM. Moreover, the inhibition constant Ki in experiment [3] and in experiment [4] was no more than 0.01 µM throughout.

Regarding `CCOc1cc(Cl)ccc1O[C@@H](C1CC1)[C@H]1CCNC1` [Example 16-41, (S)-3-[(S)-(4-Chloro-2-ethoxyphenoxy)cyclopropylmethyl]pyrrolidine], the values for the IC50 in experiment [1] and in experiment [2] were no more than 0.1 µM and no more than 0.01 µM, respectively. The Ki in experiment [3] and in experiment [4] was no more than 0.01 µM throughout.

On to `c1ccc2c(O[C@@H](C3CC3)[C@H]3CCNC3)cccc2c1` [Example 22, (S)-3-[(S)-Cyclopropyl(naphthalen-1-yloxy)methyl]pyrrolidine], for which the IC50 in experiment [1] and in experiment [2] was no more than 0.01 µM throughout. The Ki in experiment [3] and in experiment [4] was no more than 0.01 µM each time.

Regarding `CCOc1cc(Cl)ccc1O[C@H](C1CC1)[C@H]1CCNC1` [Example 16-42, (S)-3-[(R)-(4-Chloro-2-ethoxyphenoxy)cyclopropylmethyl]pyrrolidine], the IC50 in experiment [1] and in experiment [2] was no more than 0.1 µM each time. In addition, the Ki in experiment [3] is no more than 0.1 µM; in experiment [4], no more than 0.01 µM.

Regarding `Clc1ccccc1O[C@H](C1CC1)[C@H]1CCNC1` [Example 16-2, (S)-3-[(R)-(2-Chlorophenoxy)cyclopropylmethyl]pyrrolidine], the IC50 is no more than 0.1 µM in experiment [1] and no more than 0.01 µM in experiment [2]. Moreover, the Ki in experiment [3] and in experiment [4] was no more than 0.01 µM in each case.

As to `CC(C)C[C@@H](Oc1c(Cl)cccc1Cl)[C@H]1CCNC1` [Example 10-55, (S)-3-[(R)-1-(2,6-Dichlorophenoxy)-3-methylbutyl]pyrrolidine], the IC50 in experiment [1] is no more than 0.1 µM; in experiment [2], no more than 0.01 µM. Further, the inhibition constant (Ki) in experiment [3] and in experiment [4] was no more than 0.01 µM in each case.

“(S)-3-[(R)-Cyclopropyl-(2-methyl-3-vinylphenoxy)methyl]pyrrolidine [Example 23-1]”: the “SERT pIC50” value in experiment [1] is “≧8.0*”. Further, the “NET pIC50” value in experiment [2] is “≧8.0*”. The “NET pKi” value in experiment [3] (hNET HEK-293 membranes, 1.0 nM 3H-nisoxetine, values given as lower bounds) is listed as “≧8.0”. The “SERT pKi” value in experiment [4] was “≧8.0”.

Turning to `CC(C)[C@H](Oc1cccc(Cl)c1C(F)(F)F)[C@H]1CCNC1` [Example 6-49, (S)-3-[(S)-1-(3-Chloro-2-trifluoromethylphenoxy)-2-methylpropyl]pyrrolidine], the IC50 in experiment [1] is no more than 0.1 µM; in experiment [2], no more than 0.01 µM. The Ki in experiment [3] and in experiment [4] was no more than 0.01 µM in each case.

Regarding `Fc1ccc(Cl)c(F)c1O[C@H](C1CC1)[C@H]1CCNC1` [Example 16-67, (S)-3-[(R)-(3-Chloro-2,6-difluorophenoxy)cyclopropylmethyl]pyrrolidine], the IC50 in experiment [1] was no more than 0.1 µM; in experiment [2], no more than 0.01 µM. The inhibition constant (Ki) in experiment [3] and in experiment [4] was no more than 0.01 µM in each case.
